Measured values published in patent US5254558A, “Substituted 1,3-diazines as leukocyte elastase inhibitors” (Imperial Chemical Industries PLC, priority 1991, dated 1993).
Blank lines part the entries; values can stand above or below the molecule they belong to.

What was measured:
[1] = test system: HLE; assay: in vivo tests (Acute Lung Injury Model, Acute Hemorrhagic Assay); settings: basis for compounds of particular interest
[2] = molecular target: T1, human leukocyte elastase (HLE) (Homo sapiens, UniProt P08246); assay: Inhibition measurements: Ki against HLE on substrate methoxy-succinyl-alanyl-alanyl-prolyl-valine-p-nitroanilide; type: biochemical; settings: read-out: Ki, dissociation constant of the complex of inhibitor with HLE
T1 sequence (P08246 30-247 limits assumed): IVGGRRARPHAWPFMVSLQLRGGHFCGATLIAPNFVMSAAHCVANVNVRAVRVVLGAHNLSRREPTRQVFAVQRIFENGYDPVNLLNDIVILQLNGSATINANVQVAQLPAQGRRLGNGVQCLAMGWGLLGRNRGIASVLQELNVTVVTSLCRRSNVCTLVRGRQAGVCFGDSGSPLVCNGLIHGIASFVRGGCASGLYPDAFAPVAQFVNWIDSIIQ
Method: The potency of a Compound to act as an inhibitor of human leukocyte elastase (HLE) on the low molecular weight peptide substrate methoxy-succinyl-alanyl-alanyl-prolyl-valine-p-nitroanilide is determined as described in U.S. Pat. No. 4,910,190. The potency of an inhibitor is evaluated by obtaining a kinetic determination of the dissociation constant, Ki, of the complex formed from the interaction of the inhibitor with HLE. If a Compound is found to be a "slow-binding" inhibitor of HLE, special methods of analysis to accurately determine Ki values for the inhibition of HLE are carried out as described in U.S. Pat. No. 4,910,190. In general, the Ki values for Compounds of the invention which were tested are generally on the order of 10^-7 M or much less.

[3] = test system: human neutrophil elastase (HNE); assay: Acute Hemorrhagic Assay: lung hemorrhage after intratracheal HNE in hamsters; type: in vivo, hamster; settings: 2.5 mg/kg by mouth, male Syrian hamsters
Method: This assay relies on monitoring only the amount of hemorrhage in the lung following intratracheal administration of human neutrophil elastase (HNE). Hemorrhage is quantified by disrupting erythrocytes recovered in lung lavage fluid and comparing that to dilutions of whole hamster blood. The screening protocol, similar to that described in Fletcher et al., American Review of Respiratory Disease (1990), 141, 672-677, is as follows. […] The compounds are then dosed by mouth to male Syrian hamsters at a fixed time, such as 30 or 90 min, prior to intratracheal administration of 50 μg/animal of HNE in 300 μL phosphate buffered saline (PBS) pH 7.4. Four hours enzyme administration, the animals are killed with an overdose of pentobarbital sodium, the thorax opened and the lungs and trachea removed. […] The recovered lavages are pooled, the volumes (about 5 mL) are recorded and the lavages stored at 4° C. until assayed. […] The optical densities (OD) of the disrupted lavages and blood samples are determined at 405 nm. The (μL blood equivalents)/(mL lavage) are determined by comparing the OD of the test samples with the OD of the standard curve prepared from whole hamster blood. The total μL equivalents of blood recovered is determined by multiplying recovered lavage volume by the (μL blood equivalents)/(mL lavage) for each sample. […]

Compound: CC(C)C(NC(=O)Cn1c(-c2cccs2)ncc(N)c1=O)C(=O)C(F)(F)F (centres unmarked) [Example 12, 2-[5-Amino-6-oxo-2-(2-thienyl)-1,6-dihydro-1-pyrimidinyl]-N-(3,3,3-trifluoro-1-isopropyl-2-oxopropyl)acetamide]
- activity in in vivo tests [1]: activity in in vivo tests

- Ki [2]: 27 nM
Compound: CC(C)OC(=O)Nc1cnc(-c2cccs2)n(CC(=O)NC(C(=O)C(F)(F)F)C(C)C)c1=O (centres unmarked) [Example 51]
- activity in in vivo tests [1]: activity in in vivo tests
- inhibition of hemorrhage ([3]; 30 min prior to HNE): statistically significant inhibition of hemorrhage
- inhibition of hemorrhage ([3]; 90 min prior to HNE): statistically significant inhibition of hemorrhage

Compound: CCNc1cnc(-c2cccs2)n(CC(=O)NC(C(=O)C(F)(F)F)C(C)C)c1=O (centres unmarked) [Example 82]
- activity in in vivo tests [1]: activity in in vivo tests

Compound: CSC(=O)Nc1cnc(-c2ccccc2)n(CC(=O)NC(C(=O)C(F)(F)F)C(C)C)c1=O (centres unmarked) [Example 100]
- activity in in vivo tests [1]: activity in in vivo tests

Compound: CSC(=O)Nc1cnc(-c2ccc(F)cc2)n(CC(=O)NC(C(=O)C(F)(F)F)C(C)C)c1=O (centres unmarked) [Example 102]
- activity in in vivo tests [1]: activity in in vivo tests

Compound: CC(C)C(NC(=O)Cn1c(-c2cccs2)ncc(NC(=O)OCC(F)(F)F)c1=O)C(=O)C(F)(F)F (centres unmarked) [Example 106]
- activity in in vivo tests [1]: activity in in vivo tests

Compound: CC(C)C(NC(=O)Cn1c(-c2cccs2)ncc(NC=O)c1=O)C(=O)C(F)(F)F (centres unmarked) [Example 157]
- activity in in vivo tests [1]: activity in in vivo tests

Compound: CC(C)C(NC(=O)Cn1c(-c2ccccc2)ncc(NC=O)c1=O)C(=O)C(F)(F)F (centres unmarked) [Example 159]
- activity in in vivo tests [1]: activity in in vivo tests
